± gives the standard deviation of the averaged measurements.
Legend:
Experiment in all cases: level (log10 ratio to DMSO vehicle control); higher = higher biomarker level / cell amount than vehicle control
[1] = compound: O=C(O)C=C(C(F)(F)F)C(F)(F)F [3,3-Bis(trifluoromethyl)-2-propenoic acid] (in DMSO)
Method: (§1)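 BioMAP Diversity Plus panel of 12 human primary cell co-culture systems (3C, 4H, LPS, SAg, BT, BF4T, BE3C, CASM3C, HDF3CGF, KF3CT, MyoF, Mphg). Compounds were added 1 h before stimulation and left for 24 h (MyoF 48 h; BT 72 h for soluble read-outs or 6 d for IgG). Biomarkers were read by ELISA, cytotoxicity by SRB, PBMC viability and proliferation by Alamar Blue. Each well value was divided by the mean of 8 DMSO control wells on the same plate and log10 transformed; duplicate blinded samples were tested at 4 concentrations.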

[2] = compound: O=S(=O)(O)CCC(F)(F)C(F)(F)C(F)(F)C(F)(F)C(F)(F)C(F)(F)C(F)(F)C(F)(F)F [8:2 Fluorotelomer sulfonic acid] (in DMSO)
Method: as §1

Perfluorononanoic acid = compound: O=C(O)C(F)(F)C(F)(F)C(F)(F)C(F)(F)C(F)(F)C(F)(F)C(F)(F)C(F)(F)F [Perfluorononanoic acid] (in DMSO)
Method: as §1

Octafluoroadipic acid = compound: O=C(O)C(F)(F)C(F)(F)C(F)(F)C(F)(F)C(=O)O [Octafluoroadipic acid] (in DMSO)
Method: as §1

[3] = compound: O=C(O)C(F)(F)C(F)(F)C(F)(F)OC(F)(F)F [Perfluoro(4-methoxybutanoic) acid] (in DMSO)
Method: as §1

Perfluoroundecanoic acid = compound: O=C(O)C(F)(F)C(F)(F)C(F)(F)C(F)(F)C(F)(F)C(F)(F)C(F)(F)C(F)(F)C(F)(F)C(F)(F)F [Perfluoroundecanoic acid] (in DMSO); settings: 6700 nM
Method: as §1

[4] = compound: OCC(F)(F)OC(F)(F)C(F)(F)OC(F)(F)C(F)(F)OC(F)(F)CO [1H,1H,11H,11H-Perfluorotetraethylene glycol] (in DMSO)
Method: as §1

Row | Test System | level (log10) ([1]; 6700 nM) | level (log10) ([1]; 20000 nM) | level (log10) ([1]; 60000 nM) | level (log10) ([2]; 6700 nM) | level (log10) ([2]; 20000 nM) | level (log10) ([2]; 60000 nM) | level (log10) (Perfluorononanoic acid; 6700 nM) | level (log10) (Perfluorononanoic acid; 20000 nM) | level (log10) (Octafluoroadipic acid; 6700 nM) | level (log10) (Octafluoroadipic acid; 20000 nM) | level (log10) (Octafluoroadipic acid; 60000 nM) | level (log10) ([3]; 6700 nM) | level (log10) ([3]; 20000 nM) | level (log10) ([3]; 60000 nM) | level (log10) (Perfluoroundecanoic acid) | level (log10) ([4]; 6700 nM) | level (log10) ([4]; 20000 nM) | level (log10) ([4]; 60000 nM)
1 | BF4T:Keratin 8/18 | -0.012 ± 0.0085 | -0.012 ± 0.0028 | 0.007 ± 0.014 | 0.004 ± 0.0099 | -0.0005 ± 0.018 | 0.0245 ± 0.0078 | -0.0155 ± 0.016 | 0.0075 ± 0.023 | 0.002 ± 0.023 | -0.004 ± 0.021 | 0.004 ± 0.037 | 0.0035 ± 0.032 | 0.001 ± 0.05 | 0.013 ± 0.045 | 0 ± 0.014 | -0.0025 ± 0.012 | -0.005 ± 0.0057 | -0.0335 ± 0.015
2 | BT:sIL-17A | 0.0535 ± 0.043 | -0.246 ± 0.1 | -0.482 ± 0.0028 | -0.152 ± 0.057 | -0.012 ± 0.013 | -0.0805 ± 0.16 | -0.05 ± 0.0085 | 0.0015 ± 0.022 | -0.0875 ± 0.044 | 0.0075 ± 0.064 | 0.128 ± 0.092 | -0.082 ± 0.0028 | -0.0755 ± 0.083 | 0.0425 ± 0.16 | -0.06 ± 0.25 | -0.075 ± 0.069 | -0.105 ± 0.032 | -0.337 ± 0.18
3 | LPS:SRB | -0.006 ± 0.0071 | -0.024 ± 0.0085 | -0.044 ± 0.0057 | -0.0085 ± 0.005 | -0.0095 ± 0.019 | -0.02 ± 0.018 | -0.0065 ± 0.00071 | 0.0045 ± 0.0078 | 0.0015 ± 0.0064 | 0.004 ± 0.0085 | -0.0055 ± 0.0064 | -0.0085 ± 0.00071 | -0.008 ± 0.0071 | -0.0085 ± 0.0035 | 0.005 ± 0.0057 | -0.0175 ± 0.0078 | -0.0255 ± 0.013 | -0.086 ± 0.013
4 | LPS:CCL2/MCP-1 | 0.0015 ± 0.00071 | -0.0145 ± 0.0035 | -0.02 ± 0.03 | 0.0135 ± 0.023 | 0.016 ± 0.0028 | -0.055 ± 0.045 | -0.0035 ± 0.033 | 0.0165 ± 0.016 | -0.0015 ± 0.044 | -0.0045 ± 0.026 | 0.0205 ± 0.0078 | 0.004 ± 0.013 | -0.001 ± 0.024 | 0.025 ± 0.058 | 0.0015 ± 0.0078 | -0.0125 ± 0.0035 | -0.033 ± 0.028 | -0.0405 ± 0.025
5 | BF4T:tPA | -0.0965 ± 0.035 | -0.12 ± 0.026 | -0.11 ± 0.029 | -0.0045 ± 0.028 | -0.0525 ± 0.0021 | -0.0465 ± 0.016 | -0.025 ± 0.027 | -0.0995 ± 0.026 | -0.007 ± 0.0014 | -0.0065 ± 0.025 | 0.0035 ± 0.005 | -0.003 | 0.0005 ± 0.0064 | 0.0105 ± 0.022 | -0.043 ± 0.037 | -0.036 ± 0.0028 | -0.0685 ± 0.043 | -0.201 ± 0.035
6 | 3C:Proliferation | -0.0425 ± 0.0021 | -0.089 ± 0.02 | -0.189 ± 0.1 | 0.004 ± 0.086 | -0.0315 ± 0.083 | -0.053 ± 0.018 | 0.0095 ± 0.073 | 0.0795 ± 0.03 | -0.0705 ± 0.005 | 0.016 ± 0.013 | -0.007 ± 0.03 | -0.057 ± 0.023 | -0.0055 ± 0.046 | -0.036 ± 0.03 | 0.027 ± 0.013 | -0.04 ± 0.067 | -0.116 ± 0.061 | -0.248 ± 0.049
7 | BE3C:CXCL10/IP-10 | -0.022 ± 0.027 | -0.0195 ± 0.026 | -0.0295 ± 0.00071 | -0.0205 ± 0.012 | -0.122 ± 0.019 | -0.237 ± 0.02 | -0.039 ± 0.025 | -0.145 ± 0.031 | -0.0035 ± 0.0035 | -0.002 ± 0.011 | 0.017 ± 0.023 | -0.0045 ± 0.0078 | -0.001 ± 0.0085 | 0.0045 ± 0.0035 | -0.4655 ± 0.0021 | -0.012 ± 0.0028 | -0.0315 ± 0.021 | -0.167 ± 0.028
8 | BF4T:MMP-9 | -0.0155 ± 0.0021 | -0.0185 ± 0.018 | -0.004 ± 0.021 | 0.0065 ± 0.015 | -0.003 ± 0.0014 | -0.0215 ± 0.005 | -0.034 ± 0.038 | -0.032 ± 0.0042 | -0.0075 ± 0.047 | -0.0065 ± 0.036 | 0.0165 ± 0.026 | 0.0095 ± 0.032 | 0.006 ± 0.034 | 0.027 ± 0.028 | -0.056 ± 0.04 | -0.007 ± 0.013 | -0.004 ± 0.013 | -0.0405 ± 0.033
9 | BE3C:EGFR | -0.015 ± 0.014 | -0.011 ± 0.0085 | -0.0015 ± 0.012 | 0.002 ± 0.0028 | -0.014 ± 0.018 | 0.004 ± 0.0099 | -0.023 ± 0.028 | -0.0285 ± 0.03 | -0.012 ± 0.017 | -0.0015 ± 0.005 | 0.0105 ± 0.016 | 0.016 ± 0.0071 | 0.0035 ± 0.015 | 0.009 ± 0.016 | -0.064 ± 0.0014 | 0.0055 ± 0.011 | -0.0005 ± 0.0078 | -0.034 ± 0.0014
10 | LPS:CD142/Tissue Factor | 0.0165 ± 0.064 | -0.023 ± 0.12 | -0.036 ± 0.12 | 0.0005 ± 0.067 | 0.024 ± 0.088 | -0.0025 ± 0.011 | 0.01 ± 0.016 | -0.001 ± 0.02 | -0.0105 ± 0.022 | 0.02 ± 0.034 | 0.0215 ± 0.0078 | -0.0085 ± 0.066 | -0.012 ± 0.054 | 0.016 ± 0.051 | -0.023 ± 0.014 | -0.0455 ± 0.016 | -0.0665 ± 0.0064 | -0.0575 ± 0.07
11 | 3C:CXCL8/IL-8 | 0.038 ± 0.02 | 0.0255 ± 0.04 | 0.061 ± 0.071 | -0.0005 ± 0.13 | 0.012 ± 0.057 | 0.079 ± 0.024 | 0.0175 ± 0.0021 | 0.0475 ± 0.013 | 0.001 ± 0.024 | -0.0095 ± 0.005 | 0.0215 ± 0.025 | 0.008 ± 0.014 | 0.001 ± 0.0099 | 0.022 ± 0.025 | -0.022 ± 0.02 | 0.003 ± 0.025 | -0.009 ± 0.0099 | -0.0045 ± 0.0035
12 | BE3C:CXCL9/MIG | -0.007 ± 0.014 | -0.007 ± 0.0057 | 0.005 ± 0.023 | -0.002 ± 0.0085 | -0.015 ± 0.0028 | -0.03 ± 0.011 | -0.019 ± 0.013 | -0.0195 ± 0.0021 | 0.0105 ± 0.013 | 0.012 | 0.0075 ± 0.016 | 0.0005 ± 0.013 | -0.006 ± 0.016 | -0.0005 ± 0.00071 | -0.0125 ± 0.0064 | -0.005 ± 0.0042 | 0.004 ± 0.0071 | -0.0355 ± 0.015
13 | LPS:IL-1alpha | -0.0355 ± 0.015 | -0.0495 ± 0.023 | -0.095 ± 0.02 | -0.0195 ± 0.03 | -0.016 ± 0.037 | -0.283 ± 0.19 | -0.0315 ± 0.0064 | -0.03 ± 0.014 | -0.003 ± 0.0028 | 0.017 ± 0.045 | 0.029 ± 0.047 | -0.023 ± 0.013 | -0.0195 ± 0.04 | 0.0005 ± 0.09 | -0.103 ± 0.019 | -0.02 ± 0.024 | -0.017 ± 0.0057 | -0.006 ± 0.042
14 | BT:PBMC Cytotoxicity | 0.0065 ± 0.049 | 0.001 ± 0.02 | -0.009 ± 0.025 | 0.006 ± 0.018 | 0.0115 ± 0.005 | 0.0505 ± 0.018 | -0.0065 ± 0.036 | 0.0515 ± 0.015 | -0.0015 ± 0.029 | 0.001 ± 0.0014 | 0.0025 ± 0.019 | 0.0095 ± 0.0078 | -0.0025 ± 0.0064 | 0.0225 ± 0.021 | 0.0085 ± 0.029 | 0.019 ± 0.0042 | -0.018 ± 0.03 | -0.0425 ± 0.028
15 | 4H:CCL2/MCP-1 | -0.051 ± 0.035 | -0.0675 ± 0.005 | -0.081 ± 0.052 | -0.001 ± 0.014 | -0.033 ± 0.016 | 0.0125 ± 0.046 | -0.074 ± 0.013 | -0.0405 ± 0.005 | -0.03 ± 0.018 | -0.0365 ± 0.025 | 0.03 ± 0.024 | -0.0235 ± 0.013 | -0.026 ± 0.0028 | 0.0005 ± 0.061 | -0.024 ± 0.023 | -0.0525 ± 0.029 | -0.126 ± 0.0071 | -0.196 ± 0.027
16 | SAg:SRB | 0.0025 ± 0.0021 | -0.006 ± 0.0085 | -0.0275 ± 0.005 | -0.0075 ± 0.0035 | -0.0095 ± 0.0035 | -0.0335 ± 0.011 | -0.01 ± 0.0085 | -0.002 ± 0.0099 | -0.01 ± 0.016 | -0.008 ± 0.014 | -0.012 ± 0.0014 | -0.0145 ± 0.0078 | -0.023 ± 0.0099 | -0.017 ± 0.021 | 0.0015 ± 0.0092 | -0.008 ± 0.025 | -0.0175 ± 0.021 | -0.045 ± 0.021

Source: the supplement of paper PMC10331698
